# Measured values published in patent US9446127B2, “Compositions including androgen receptor degradation (ARD) enhancers and methods of prophylactic or therapeutic treatment of skin disorders and hair loss” (AndroScience Corporation, priority 2007, dated 2016).
# How the values were obtained:
# [1] = tested on: ER beta, PPARα, β or γ, RXRα, hsp70, actin; test: Specificity Western blot in LNCaP cell lysates, other nuclear receptors or proteins; assay type: cell-based, human; conditions: 1 or 5 micromolar, 24 hours, presence or absence of DHT
# Procedure: (§1) Human prostate cancer LNCaP cells and T47D cells were plated at a density of 7×10^5 cells per 60 millimeter tissue culture dish in […] medium containing 10% FBS. The medium was changed to RPMI or DME medium containing 10% charcoal-stripped serum 24 hours later to deplete cellular androgens or estrogens. After another 24 hours, treatment with the test compounds began. The test dose of ASC-J9 was 1, and 5 and micromolar. LNCap cells also received dihydrotestosterone (DHT) (3 nanomolar). Control cells received a corresponding amount of the vehicle, dimethylsulfoxide (DMSO) (<0.04%) for an equivalent exposure time. Cells were incubated with ASC-J9 for 24 hours, and were lysed in 250 microliters of 1×SDS/PAGE loading buffer. Approximately 40 micrograms of total cellular protein was loaded in each lane of a pre-cast gel (NuPAGE, Invitrogen). Protein separation and transfer were performed following the manufacturer's instructions.
# For the LNCaP cell lysates, androgen receptor (AR) protein was visualized by incubating the resultant membranes with an anti-AR antibody (BD-PharMingen), followed by chemiluminescence detection (ECL Plus, Amersham). […] The resultant protein signals were quantified using densitometry and NIH ImageJ software.
# [2] = tested on: PPARγ, PPARβ, RXRα, ERα and Erβ, ERK, HSP70 and actin; test: Specificity Western blot in T47D cell lysates, other receptor proteins; assay type: cell-based, human; conditions: T47D cell lysates (FIG. 6)
# Procedure: as §1
# sebaceous glands = test: Reduction of sebaceous glands in Fuzzy rats, topical cream; assay type: in vivo
# Procedure: Topical creams were prepared as later described in EXAMPLE 12. […] The test or control creams were applied using a cotton swab to the dorsal skin of the animal, once daily, over a period of 8 weeks. Animals were then sacrificed and skin samples collected for microscopic examination. Commercial hair remover was applied to the dorsal surface of the euthanized animals. After 5 minutes, the hair remover and hairs were removed with a tissue. The area was thoroughly cleaned with 75% isopropyl alcohol. A 4-millimeter skin punch was used to remove skin tissue samples, which were incubated for 2 to 3 hours in a ethylenediaminetetraacetate (EDTA, 17 millimolar), sodium phosphate (0.1 molar, pH 7.4) solution at 37 degrees Celsius. The epidermis was carefully separated from the dermis and stored in 10% phosphate-buffered formalin. Prior to microscopic examination, the samples were mounted on glass slides. Areas of well-preserved glandular lobules were selected for microscopic imaging. Edges of the glandular lobes were traced and the areas of the traced lobes obtained with Image J software (National Institutes of Health).
# [3] = tested on: testosterone-induced hair growth suppression; test: Testosterone-induced alopecia model, hair re-growth; assay type: in vivo, C57BL/6J mice; conditions: testosterone mornings
# Procedure: C57BL/6J mice were used in this animal model for hair loss and regrowth (Uno et al. (1990) J. Cutaneous Aging & Cosm. Derm., 1:193, which is incorporated by reference in its entirety herein). Six-week-old male mice (6 to 7 animals per group) were shaved with an electric clipper, and then treated with a hair-removal cream for 1 to 2 minutes. […] One day after hair removal, a first group of animals each received 100 microliters of a 1% testosterone solution in ethanol, applied topically to the shaved area, once each morning for twenty consecutive days. A second group of animals each received 100 microliters of vehicle (ethanol) alone, applied topically to the shaved area, once each morning for twenty consecutive days. The first group of mice (testosterone-treated) were divided further into a control group and a treatment group. Also beginning one day after hair removal, each mouse in the control group received 100 microliters of a control solution (60% ethanol, 20% propylene glycol, and 20% water) and each mouse in the treatment group received 100 microliters of the test compound, ASC-J9 (0.02% in the same 60% ethanol, 20% propylene glycol, and 20% water solution), applied topically to the shaved area, once each afternoon for twenty consecutive days. Hair re-growth in the shaved areas was observed and photographed at 0, 4, 8, 11 and 14 days after beginning of the topical treatments.
# LNCaP tumor = test: LNCaP xenograft tumor growth in nude mice; assay type: in vivo; conditions: 100 mg/kg/day ip three times per week, 7 weeks
# Procedure: In the related in vivo studies, LNCaP human prostate tumor cells are xenografted into nude mice by subcutaneous injection (2×10^6 per site). Mice are subsequently treated, by intraperitoneal injection, with either the vehicle solution as control or the test compounds (ASC-J9 at a dose of 100 milligrams per kilogram body weight), three times a week for 7 weeks. Tumor volume is measured twice a week over the next 7 weeks. […] Data in FIG. 12 show two nude mice received xenografted LNCaP tumor and one treated with vehicle solution (left) and the other with ASC-J9 (right). A significant reduction in tumor size and PSA content in plasma were detected in animal received ASC-J9 treatment. Such results can be taken as a strong indication that the suppression of AR activity and the resulting reduction of tumor growth induced by AR-degrading compounds such as ASC-J9, may be translated into a practical use for treating or preventing diseases and disorders related to AR activity, such as prostate and other cancers.
# Two million LNCaP tumor cells were inoculated, subcutaneously, into the left flank of nude mice. In the experimental animals, the nude mice were give an intraperitoneal (ip) injection of compound ASC-J9 at 100 mg/kg/day three times per week or with vehicle control only. After 7 weeks of treatment the tumors were excised, weighed and compared. […] In addition, PSA (prostate specific antigen) level in plasma from animal treated with ASC-J9 reduced 90% (reduce from 57.0 ng/ml to 7.6 ng/ml).
smiles,measurement,setting,value
"COc1ccc(C=CC(=O)C=C(O)C=Cc2ccc(OC)c(OC)c2)cc1OC [ASC-J9, 5-hydroxy-1,7-bis(3,4-dimethoxyphenyl)-1,4,6-heptatrien-3-one]",other tested nuclear receptors or proteins,[1],did not substantially affect
same,expression of other receptor proteins,[2],not affected
same,size of ducts of sebaceous glands,"sebaceous glands; male Fuzzy rats, topical (FIG. 10E), comparable to castration, better than flutamide",significantly reduced the size of ducts
same,size of the sebaceous gland,"sebaceous glands; male rats, topical, 200 μM (FIG. 10A-C), not to the extent caused by castration",significant reduction in the size of the sebaceous gland
same,time to reduction of brown skin color and bands of sebaceous glands,"sebaceous glands; topical cream 25 micromolar, once daily",4-5 weeks
same,size of the sebaceous glandular lobe,"sebaceous glands; topical, various concentrations (FIG. 10D), less than castration, better than flutamide",significant reduction in the size of the sebaceous glandular lobe
same,hair re-growth in shaved areas,"[3]; 0.02% topical afternoons, day 8 to day 17",rapid re-growth of hair
same,hair re-growth in shaved areas,"[3]; topical afternoons, after 20 days",fully re-growth of hair
same,reduction of PSA level in plasma,LNCaP tumor,90%
same,reduction in tumor size,LNCaP tumor; vs vehicle control,75%
same,PSA (prostate specific antigen) level in plasma,LNCaP tumor; reduced from 57.0 ng/ml,7.6 ng/mL
same,tumor weight,LNCaP tumor; vehicle control 0.694 g,0.172 g
